Experiment: mn = molality of the nth substance listed, in mol/kg
Conditions: 350 kPa, Liquid; for apparent molar heat capacity: Extra sensitive DSC

OC[C@@H](O)[C@@H](O)[C@H](O)[C@@H](O)CO [D-sorbitol] + O
Conditions | apparent molar heat capacity [J/K/mol] | mass density [kg/m3]
278.15 K, m1 = 0.02 | 373 | 1001.46
278.15 K, m1 = 0.04 | 346.7 | 1002.79
278.15 K, m1 = 0.069 | 355.4 | 1005.09
278.15 K, m1 = 0.1997 | 360.1 | 1013.23
278.15 K, m1 = 0.4003 | 363.3 | 1025.52
278.15 K, m1 = 0.6991 | 367.7 | 1042.94
278.15 K, m1 = 0.9784 | 372.3 | 1057.65
278.15 K, m1 = 1.501 | 372.1 | 1082.71
278.15 K, m1 = 2.004 | 383.7 | 1104.6
283.15 K, m1 = 0.02 | 391 | 1001.14
283.15 K, m1 = 0.04 | 366.7 | 1002.47
283.15 K, m1 = 0.069 | 374.6 | 1004.71
283.15 K, m1 = 0.1997 | 378.8 | 1012.74
283.15 K, m1 = 0.4003 | 381.8 | 1024.88
283.15 K, m1 = 0.6991 | 385.6 | 1042.11
283.15 K, m1 = 0.9784 | 389.4 | 1056.73
283.15 K, m1 = 1.501 | 389.4 | 1081.57
283.15 K, m1 = 2.004 | 399.4 | 1103.19
288.15 K, m1 = 0.02 | 406 | 1000.48
288.15 K, m1 = 0.04 | 382.5 | 1001.81
288.15 K, m1 = 0.069 | 389.8 | 1003.99
288.15 K, m1 = 0.1997 | 393.7 | 1011.95
288.15 K, m1 = 0.4003 | 396.3 | 1023.96
288.15 K, m1 = 0.6991 | 399.5 | 1041
288.15 K, m1 = 0.9784 | 402.8 | 1055.55
288.15 K, m1 = 1.501 | 402 | 1080.23
288.15 K, m1 = 2.004 | 411.5 | 1101.6
293.15 K, m1 = 0.02 | 418 | –
293.15 K, m1 = 0.04 | 395.4 | –
293.15 K, m1 = 0.069 | 402.5 | –
293.15 K, m1 = 0.1997 | 406.4 | –
293.15 K, m1 = 0.4003 | 408.9 | –
293.15 K, m1 = 0.6991 | 411.6 | –
293.15 K, m1 = 0.9784 | 414.4 | –
293.15 K, m1 = 1.501 | 413.2 | –
293.15 K, m1 = 2.004 | 422 | –
298.15 K, m1 = 0.02 | 429 | 998.4
298.15 K, m1 = 0.04 | 406.9 | 999.67
298.15 K, m1 = 0.069 | 413.8 | 1001.72
298.15 K, m1 = 0.1997 | 417.4 | 1009.58
298.15 K, m1 = 0.4003 | 419.5 | 1021.39
298.15 K, m1 = 0.6991 | 421.9 | 1038.13
298.15 K, m1 = 0.9784 | 424.4 | 1052.5
298.15 K, m1 = 1.501 | 422.7 | 1076.86
298.15 K, m1 = 2.004 | 430.9 | 1097.81
303.15 K, m1 = 0.02 | 439 | –
303.15 K, m1 = 0.04 | 417.1 | –
303.15 K, m1 = 0.069 | 423.6 | –
303.15 K, m1 = 0.1997 | 426.9 | –
303.15 K, m1 = 0.4003 | 428.9 | –
303.15 K, m1 = 0.6991 | 430.9 | –
303.15 K, m1 = 0.9784 | 433.1 | –
303.15 K, m1 = 1.501 | 431.1 | –
303.15 K, m1 = 2.004 | 438.8 | –
308.15 K, m1 = 0.02 | 447 | 995.35
308.15 K, m1 = 0.04 | 425.7 | 996.6
308.15 K, m1 = 0.069 | 432 | 998.45
308.15 K, m1 = 0.1997 | 435.3 | 1006.4
308.15 K, m1 = 0.4003 | 437 | 1018.06
308.15 K, m1 = 0.6991 | 438.8 | 1034.6
308.15 K, m1 = 0.9784 | 440.7 | 1048.63
308.15 K, m1 = 1.501 | 438.4 | 1072.81
308.15 K, m1 = 2.004 | 445.8 | 1093.63
313.15 K, m1 = 0.02 | 455 | –
313.15 K, m1 = 0.04 | 432.5 | –
313.15 K, m1 = 0.069 | 439.5 | –
313.15 K, m1 = 0.1997 | 442.6 | –
313.15 K, m1 = 0.4003 | 444.2 | –
313.15 K, m1 = 0.6991 | 445.8 | –
313.15 K, m1 = 0.9784 | 447.5 | –
313.15 K, m1 = 1.501 | 445.1 | –
313.15 K, m1 = 2.004 | 452.2 | –
318.15 K, m1 = 0.02 | 462 | 991.53
318.15 K, m1 = 0.04 | 439.7 | 992.78
318.15 K, m1 = 0.069 | 446.1 | 994.56
318.15 K, m1 = 0.1997 | 449.1 | 1002.41
318.15 K, m1 = 0.4003 | 450.6 | 1013.97
318.15 K, m1 = 0.6991 | 452 | 1030.3
318.15 K, m1 = 0.9784 | 453.6 | 1044.19
318.15 K, m1 = 1.501 | 451 | 1068.13
318.15 K, m1 = 2.004 | 457.8 | 1088.73
323.15 K, m1 = 0.02 | 468 | –
323.15 K, m1 = 0.04 | 446 | –
323.15 K, m1 = 0.069 | 451.9 | –
323.15 K, m1 = 0.1997 | 455 | –
323.15 K, m1 = 0.4003 | 456.3 | –
323.15 K, m1 = 0.6991 | 457.6 | –
323.15 K, m1 = 0.9784 | 459 | –
323.15 K, m1 = 1.501 | 456.5 | –
323.15 K, m1 = 2.004 | 463 | –
328.15 K, m1 = 0.02 | 473 | 987.02
328.15 K, m1 = 0.04 | 450.8 | 988.24
328.15 K, m1 = 0.069 | 457.2 | 989.98
328.15 K, m1 = 0.1997 | 460.2 | 997.75
328.15 K, m1 = 0.4003 | 461.5 | 1009.18
328.15 K, m1 = 0.6991 | 462.7 | 1025.35
328.15 K, m1 = 0.9784 | 464 | 1039.16
328.15 K, m1 = 1.501 | 461.4 | 1062.99
328.15 K, m1 = 2.004 | 467.6 | 1083.37
333.15 K, m1 = 0.02 | 478 | –
333.15 K, m1 = 0.04 | 456.4 | –
333.15 K, m1 = 0.069 | 462 | –
333.15 K, m1 = 0.1997 | 464.9 | –
333.15 K, m1 = 0.4003 | 466.2 | –
333.15 K, m1 = 0.6991 | 467.3 | –
333.15 K, m1 = 0.9784 | 468.5 | –
333.15 K, m1 = 1.501 | 465.9 | –
333.15 K, m1 = 2.004 | 471.9 | –
338.15 K, m1 = 0.02 | 482 | 981.86
338.15 K, m1 = 0.04 | 460.5 | 983.14
338.15 K, m1 = 0.069 | 466.2 | 984.86
338.15 K, m1 = 0.1997 | 469.2 | 992.6
338.15 K, m1 = 0.4003 | 470.5 | 1003.94
338.15 K, m1 = 0.6991 | 471.5 | 1020.02
338.15 K, m1 = 0.9784 | 472.6 | 1033.71
338.15 K, m1 = 1.501 | 470.1 | 1057.29
338.15 K, m1 = 2.004 | 475.8 | 1077.49
343.15 K, m1 = 0.02 | 486 | –
343.15 K, m1 = 0.04 | 464 | –
343.15 K, m1 = 0.069 | 470 | –
343.15 K, m1 = 0.1997 | 473 | –
343.15 K, m1 = 0.4003 | 474.3 | –
343.15 K, m1 = 0.6991 | 475.3 | –
343.15 K, m1 = 0.9784 | 476.3 | –
343.15 K, m1 = 1.501 | 473.9 | –
343.15 K, m1 = 2.004 | 479.3 | –
348.15 K, m1 = 0.02 | 489 | 976.44
348.15 K, m1 = 0.04 | 467.7 | 977.62
348.15 K, m1 = 0.069 | 473.3 | 979.35
348.15 K, m1 = 0.1997 | 476.4 | 987.03
348.15 K, m1 = 0.4003 | 477.7 | 998.25
348.15 K, m1 = 0.6991 | 478.6 | 1014.26
348.15 K, m1 = 0.9784 | 479.7 | 1027.75
348.15 K, m1 = 1.501 | 477.3 | 1051.07
348.15 K, m1 = 2.004 | 482.4 | 1071.23
353.15 K, m1 = 0.02 | 492 | –
353.15 K, m1 = 0.04 | 472.1 | –
353.15 K, m1 = 0.069 | 476.2 | –
353.15 K, m1 = 0.1997 | 479.4 | –
353.15 K, m1 = 0.4003 | 480.6 | –
353.15 K, m1 = 0.6991 | 481.6 | –
353.15 K, m1 = 0.9784 | 482.6 | –
353.15 K, m1 = 1.501 | 480.4 | –
353.15 K, m1 = 2.004 | 485.2 | –
358.15 K, m1 = 0.02 | 494 | 969.9
358.15 K, m1 = 0.04 | 480.2 | 971.49
358.15 K, m1 = 0.069 | 478.7 | 972.88
358.15 K, m1 = 0.1997 | 481.7 | 980.97
358.15 K, m1 = 0.4003 | 483 | 991.75
358.15 K, m1 = 0.6991 | 483.9 | 1007.73
358.15 K, m1 = 0.9784 | 484.8 | 1021.37
358.15 K, m1 = 1.501 | 483.2 | 1044.38
358.15 K, m1 = 2.004 | 487.4 | 1064.53
363.15 K, m1 = 0.02 | 495 | –
363.15 K, m1 = 0.04 | 508 | –
363.15 K, m1 = 0.069 | 479.6 | –
363.15 K, m1 = 0.1997 | 482.5 | –
363.15 K, m1 = 0.4003 | 483.7 | –
363.15 K, m1 = 0.6991 | 484.6 | –
363.15 K, m1 = 0.9784 | 485.5 | –
363.15 K, m1 = 1.501 | 485.7 | –
363.15 K, m1 = 2.004 | 487.9 | –
368.15 K, m1 = 0.02 | – | 963.45
368.15 K, m1 = 0.04 | – | 964.68
368.15 K, m1 = 0.069 | – | 966.4
368.15 K, m1 = 0.1997 | – | 974.03
368.15 K, m1 = 0.4003 | – | 985.25
368.15 K, m1 = 0.6991 | – | 1001.2
368.15 K, m1 = 0.9784 | – | 1014.47
368.15 K, m1 = 1.501 | – | 1037.56
368.15 K, m1 = 2.004 | – | 1057.91
